Data taken from PubChem BioAssay (NCI).
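96-well plates; 48 h exposure; 5 concentrations. Endpoints by linear interpolation between flanking doses. Not reached: highest tested concentration assigned. Definition used: TGI = concentration required for complete inhibition of growth.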

Experiments:
Test in all cases: growth of human tumour cells (NCI), 48 h
[1] = tested on: DLD-1 colon
[2] = tested on: RXF 393 renal
[3] = tested on: HCC-2998 colon
[4] = tested on: KM12 colon
[5] = tested on: 786-0 renal
[6] = tested on: DMS 273 small cell lung
[7] = tested on: M14 melanoma
[8] = tested on: HOP-18 NSCLC
[9] = tested on: SK-MEL-2 melanoma
[10] = tested on: SN12C renal
[11] = tested on: IGROV1 ovarian
[12] = tested on: EKVX NSCLC
[13] = tested on: SK-MEL-5 melanoma
[14] = tested on: SNB-78 CNS
[15] = tested on: NCI-H522 lung
[16] = tested on: SF-268 CNS
[17] = tested on: HOP-92 NSCLC
[18] = tested on: SNB-19 CNS
[19] = tested on: RXF-631 renal
[20] = tested on: OVCAR-5 ovarian
[21] = tested on: LOX IMVI melanoma
[22] = tested on: M19-MEL melanoma
[23] = tested on: A549 NSCLC
[24] = tested on: SF-295 CNS
[25] = tested on: HT29 colon
[26] = tested on: SK-OV-3 ovarian
[27] = tested on: SK-MEL-28 melanoma
[28] = tested on: DMS 114 small cell lung
[29] = tested on: SR leukemia
[30] = tested on: U251 CNS
[31] = tested on: LXFL 529 NSCLC
[32] = tested on: COLO 205 colon
[33] = tested on: HCT-116 colon
[34] = tested on: SW-620 colon
[35] = tested on: CAKI-1 renal
[36] = tested on: K-562 leukemia
[37] = tested on: CCRF-CEM leukemia
[38] = tested on: OVCAR-3 ovarian
[39] = tested on: OVCAR-8 ovarian
[40] = tested on: TK-10 renal
[41] = tested on: UACC-62 melanoma
[42] = tested on: RPMI-8226 leukemia
[43] = tested on: KM20L2 colon
[44] = tested on: MALME-3M melanoma
[45] = tested on: NCI-H226 lung
[46] = tested on: NCI-H23 lung
[47] = tested on: MOLT-4 leukemia
[48] = tested on: HCT-15 colon
[49] = tested on: UACC-257 melanoma
[50] = tested on: NCI-H460 lung
[51] = tested on: UO-31 renal
[52] = tested on: A498 renal
[53] = tested on: HOP-62 NSCLC
[54] = tested on: HL-60(TB) leukemia
[55] = tested on: SF-539 CNS
[56] = tested on: ACHN renal
[57] = tested on: SNB-75 CNS
[58] = tested on: OVCAR-4 ovarian

Measured: TGI

CC(=O)NNc1nc(C)c(C(=O)/C=C/c2cccc([N+](=O)[O-])c2)s1
not listed: [56] | [57] | [58]
> 100 µM: all other assays above

CC1=C(c2cc(C(=O)Nc3cc(C)ccc3C)nc(N)n2)Sc2ccccc2N1
> 100 µM: all assays above
